Assay results from patent US8987245B2, “Composition and method for affecting obesity and related conditions” (priority 2008, dated 2015).
“Also recorded” adds a separate entry of the source.

How the values were obtained:
[1] = system: uncoupling protein-3 (UCP3); test: Experiment I: UCP3 expression in skeletal muscle (quadriceps); assay type: in vivo, male C57BL/6J mice
Text: (§1) The following experiment involved a diet-induced mouse model of obesity. In particular, male C57BL/6J mice (these wildtype mice are genetically distinct from ob/ob and db/db mice and are not leptin-deficient) were placed on a high fat diet (HFD) or control diet (CON) at 8 wks of age, and MnTBAP or vehicle administration was initiated 5 months later, when all mice were at a steady state body weight. Mice receiving the CON diet served as lean control animals to those receiving the HFD diet. Each of the CON and HFD mice groups were then further divided into two groups. One of the CON and HFD groups was treated with 10 mg MnTBAP/kg of body weight for 30 days, and the other groups received a vehicle for 30 days. The term “vehicle” refers to the solvent used to deliver MnTBAP. In this experiment, MnTBAP was dissolved in 2% bicarbonate (pH 8.0) to a final concentration of 2 mg/mL. Vehicle-treated mice received a volume of vehicle that would have been sufficient to deliver 10 mg of MnTBAP per kg of body weight were the compound present. […]
(§2) Before and after treatment, insulin sensitivity (IS) was assessed using an insulin-assisted glucose tolerance test (IA-GTT) after a 16-hour fast. Fasting body weights were measured at the end of each fast just prior to initiation of the IA-GTT. […] In addition, SWAT and EWAT weights were measured immediately after harvest. […]

[2] = cited from earlier work
[3] = system: diet-induced mouse model of obesity; test: Experiment II: diet-induced mouse model of obesity, food intake and body weight; assay type: in vivo, male C57BL/6J mice; settings: 10 mg/kg for 36 days
Text: (§3) The following experiment involved a diet-induced mouse model of obesity. In particular, male C57BL/6J mice (these wildtype mice are genetically distinct from ob/ob and db/db mice and are not leptin-deficient) were placed on a high fat diet (HFD) or control diet (CON) at 8 wks of age, and MnTBAP or vehicle administration was initiated 6 months later, when all mice were at a steady state body weight. Mice receiving the CON diet served as lean control animals to those receiving the HFD. Each of the CON and HFD mice groups were then further divided into two groups. One of the CON and HFD groups was treated with 10 mg MnTBAP/kg of body weight for 36 days, and the other groups received a vehicle for 36 days. Food intake was measured on days 0, 3, 9, 14 and 35 post-treatment.

[4] = many in ob/ob mice, younger mice; cited from earlier work
protein kinase B (PKB) = test: Experiment I: PKB activity and expression in skeletal muscle (quadriceps); assay type: in vivo, male C57BL/6J mice
Text: as §3, with “initiated 5” for “initiated 6”, “the HFD diet.” for “the HFD.”, “for 30” for “for 36”, “days. […]” for “days. Food intake was measured on days 0, 3, 9, 14 and 35 post-treatment.”
as §2
In addition to affecting weight loss, MnTBAP has been shown by the above experiment to increase insulin sensitivity. […] It is noted that HFD mice were very insulin resistant before treatment (p<0.001), but a main effect for diet after treatment (p=0.3) was not detected, a result that underscores MnTBAP's effect on insulin action.

[5] = system: diet-induced mouse model of obesity; test: Experiment I: insulin-assisted glucose tolerance test (IA-GTT), insulin sensitivity; assay type: in vivo, male C57BL/6J mice; settings: HFD mice, 10 mg/kg daily, after 16-hour fast
Text: as §1, §2

[6] = system: diet-induced mouse model of obesity; test: Experiment I: diet-induced mouse model of obesity, body weight, fat pad weights, caloric intake; assay type: in vivo, male C57BL/6J mice
Text: The following experiment involved a diet-induced mouse model of obesity. In particular, male C57BL/6J mice (these wildtype mice are genetically distinct from ob/ob and db/db mice and are not leptin-deficient) were placed on a high fat diet (HFD) or control diet (CON) at 8 wks of age, and MnTBAP or vehicle administration was initiated 5 months later, when all mice were at a steady state body weight. Mice receiving the CON diet served as lean control animals to those receiving the HFD diet. Each of the CON and HFD mice groups were then further divided into two groups. One of the CON and HFD groups was treated with 10 mg MnTBAP/kg of body weight for 30 days, and the other groups received a vehicle for 30 days. The term “vehicle” refers to the solvent used to deliver MnTBAP. In this experiment, MnTBAP was dissolved in 2% bicarbonate (pH 8.0) to a final concentration of 2 mg/mL. Vehicle-treated mice received a volume of vehicle that would have been sufficient to deliver 10 mg of MnTBAP per kg of body weight were the compound present. MnTBAP was purchased from A.G. Scientific Inc., San Diego, Calif. […] The above-identified doses of MnTBAP and vehicle were administered to the mice as daily intraperitoneal injections.
At the start of the treatment, there were no significant differences in body weight between MnTBAP and vehicle groups within each diet (CON: p=0.99; HFD: p=0.77). In addition, HFD mice were dramatically heavier than CON mice at the start of treatment (p<0.001).
Before and after treatment, insulin sensitivity (IS) was assessed using an insulin-assisted glucose tolerance test (IA-GTT) after a 16-hour fast. Fasting body weights were measured at the end of each fast just prior to initiation of the IA-GTT. Approximately 5-7 days after the post-treatment IA-GTT, mice were stimulated with insulin ten minutes prior to delivery of an anesthetic cocktail to induce deep anesthesia for harvesting of quadriceps, tibialis anterior, soleus, gastrocnemius, subcutaneous white adipose tissue (SWAT), epididymal white adipose tissue (EWAT), and liver. In addition, SWAT and EWAT weights were measured immediately after harvest. Tissues were snap frozen in liquid nitrogen and stored at −80° C. until analysis. One quadriceps muscle from each mouse was homogenized for biochemical analyses.
Fasting body weights; fed-state body weights; and plasma glucose levels at various times during the IA-GTT, a test used to assess insulin sensitivity, were compared after treatment using a 2×2 analysis of variance (ANOVA) with repeated measures. Here “repeated measures” refers to the time of glucose measurement during the IA-GTT: 0, 15, 30, 45, 60 min. Subcutaneous white adipose tissue weights; epididymal white tissue adipose weights; caloric consumption; and all biochemical data, such as UCP-2, UCP-3, and PKB expression, were compared using a 2×2 ANOVA without repeated measures.

[7] = HFD mice, quadriceps, 10 mg/kg daily for four weeks
[8] = both CON and HFD mice, 10 mg/kg daily i.p. for 30 days

O=C(O)c1ccc(-c2c3nc(c(-c4ccc(C(=O)O)cc4)c4ccc([n-]4)c(-c4ccc(C(=O)O)cc4)c4nc(c(-c5ccc(C(=O)O)cc5)c5ccc2[n-]5)C=C4)C=C3)cc1.[Mn+3] [MnTBAP, manganese [III] tetrakis (4-benzoic acid) porphyrin]
UCP3 levels ([1]; CON mice, skeletal muscle, 10 mg/kg daily): lack of a significant increase | UCP3 expression greater than vehicle [1, 7]: ~60% | adverse side effects ([2]; doses up to 10 mg/kg of body weight): no known adverse side effects | mortality rates and age of death ([2]; mice, up to a dose of 88 mg/kg of body weight): does not increase mortality rates or decrease age of death | body weight and fat mass compared to vehicle-treated controls ([3]; CON mice): lost a significant amount | food intake vs vehicle ([3]; CON mice, days 0, 3, 9, 14 and 35): did not differ | decrease in caloric intake over the course of the study ([3]; HFD mice): 16.6% | food intake compared to vehicle-treated controls ([3]; HFD mice): markedly decreased food intake | body weight change in known studies [4]: either no change in weight or slowed weight gain but did not induce weight loss | PKB expression (protein kinase B (PKB); CON mice, 10 mg/kg daily): A statistically significant increase in PKB expression was not observed | increase in activity and expression of PKB vs vehicle (protein kinase B (PKB); [7]): ~60% | insulin sensitivity (IA-GTT) [5]: significantly enhanced insulin sensitivity; also recorded: significantly improved insulin sensitivity | share of weight loss due to decreased SWAT and EWAT fat deposits ([6]; 10 mg/kg daily i.p. for 30 days): approximately 50% | treatment time until significant weight loss, fed state ([6]; CON mice, 10 mg/kg daily i.p.): 27 days | body weight less than vehicle-treated mice after treatment ([6]; CON mice, 10 mg/kg daily i.p. for 30 days, vs CON vehicle): 12.4% | treatment time until significant weight loss, fed state ([6]; HFD mice, 10 mg/kg daily i.p.): 15 days | weight loss after 30 days of treatment ([6]; HFD mice, 10 mg/kg daily i.p.): dramatic weight loss | body weight less than vehicle-treated mice after treatment ([6]; HFD mice, 10 mg/kg daily i.p. for 30 days, vs HFD vehicle): 18.6% | EWAT weight compared to vehicle [6, 8]: dramatic reductions | SWAT weight compared to vehicle [6, 8]: dramatic reductions | daily caloric intake [6, 8]: without affecting daily caloric intake | fasting body weight compared to vehicle [6, 8]: dramatic reductions | fasting body weight after treatment vs before treatment ([6]; both HFD and CON mice, 10 mg/kg daily i.p. for 30 days): lower than before treatment
